Data taken from ChEMBL document CHEMBL3421575, “Cyclopropyl-containing positive allosteric modulators of metabotropic glutamate receptor subtype 5” (Bioorg Med Chem Lett, 2015).

What was measured:
[1] = Cytotoxicity against mouse BV2 cells assessed as cell viability by cytotox nonradioactive assay; type: cell-based; conditions: bv-2
[2] = tested on: mGluR5; test: Selectivity index, ratio of cytotoxicity for mouse BV2 cells to IC50 for mGluR5 in mouse BV2 cells; type: toxicity, cell-based, BV-2; conditions: read-out: Selectivity Index
[3] = target: Metabotropic glutamate receptor 5 (Mus musculus, UniProt Q3UVX5); test: Positive allosteric modulation at mGluR5 in mouse BV2 cells assessed as inhibition of LPS-induced NO production incubated for 1 hr prior to LPS challenge measured after 24 hrs by Griess assay; type: cell-based, BV-2
Sequence of Metabotropic glutamate receptor 5 (Q3UVX5 whole entry): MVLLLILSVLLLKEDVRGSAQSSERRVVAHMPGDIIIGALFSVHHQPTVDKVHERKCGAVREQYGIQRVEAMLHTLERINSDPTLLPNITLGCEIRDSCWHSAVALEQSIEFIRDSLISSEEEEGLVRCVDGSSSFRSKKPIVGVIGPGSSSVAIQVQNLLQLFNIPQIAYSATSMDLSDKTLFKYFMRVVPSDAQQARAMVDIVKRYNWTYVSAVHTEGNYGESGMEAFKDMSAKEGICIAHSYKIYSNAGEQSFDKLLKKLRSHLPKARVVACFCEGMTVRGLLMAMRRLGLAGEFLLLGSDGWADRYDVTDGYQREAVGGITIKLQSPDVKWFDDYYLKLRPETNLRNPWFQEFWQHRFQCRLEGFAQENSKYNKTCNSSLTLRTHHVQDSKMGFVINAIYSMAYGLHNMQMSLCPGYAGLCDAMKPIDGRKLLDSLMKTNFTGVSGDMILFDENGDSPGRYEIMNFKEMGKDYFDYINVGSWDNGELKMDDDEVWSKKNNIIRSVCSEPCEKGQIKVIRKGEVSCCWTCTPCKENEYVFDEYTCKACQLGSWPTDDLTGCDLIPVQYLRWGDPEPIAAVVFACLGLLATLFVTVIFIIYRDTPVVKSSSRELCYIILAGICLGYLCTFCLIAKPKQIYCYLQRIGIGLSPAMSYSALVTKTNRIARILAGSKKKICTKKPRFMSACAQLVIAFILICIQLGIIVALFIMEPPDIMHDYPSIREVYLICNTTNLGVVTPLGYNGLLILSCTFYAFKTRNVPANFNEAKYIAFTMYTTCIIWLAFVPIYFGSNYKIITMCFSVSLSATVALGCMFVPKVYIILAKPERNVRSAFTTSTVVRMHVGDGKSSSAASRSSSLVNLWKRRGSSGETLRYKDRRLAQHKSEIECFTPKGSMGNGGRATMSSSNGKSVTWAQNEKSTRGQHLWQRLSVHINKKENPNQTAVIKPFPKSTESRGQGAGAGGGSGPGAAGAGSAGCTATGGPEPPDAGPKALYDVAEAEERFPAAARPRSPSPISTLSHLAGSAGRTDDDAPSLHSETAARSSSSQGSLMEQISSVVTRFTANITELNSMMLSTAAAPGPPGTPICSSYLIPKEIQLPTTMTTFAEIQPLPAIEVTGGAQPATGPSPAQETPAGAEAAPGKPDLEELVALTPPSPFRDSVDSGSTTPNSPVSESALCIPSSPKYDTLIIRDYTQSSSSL

Row | Structure (SMILES) | Cytotoxic concentration [1] [µM] | selectivity ratio [2] | IC50 [3] [µM]
1 | Fc1cccc(/C=N/N=C/c2cccc(F)c2)c1 | 500 | – | –
2 | O=C(Nc1ccccc1F)[C@H]1C[C@@H]1c1cccc(F)c1 (racemic) | 1000 | 4.76 | 210
3 | O=C(Nc1ccc(F)cc1)[C@H]1C[C@@H]1c1cccc(F)c1 (racemic) | 1000 | 6.25 | 160
4 | O=C(Nc1ccccc1Cl)[C@H]1C[C@@H]1c1cccc(F)c1 (racemic) | 1000 | 5.68 | 180
5 | COc1cc(Br)ccc1NC(=O)[C@H]1C[C@@H]1c1cccc(F)c1 (racemic) | 1000 | 21.8 | 46
6 | O=C(Nc1nc2ccccc2s1)[C@H]1C[C@@H]1c1cccc(F)c1 (racemic) | 300 | 6.49 | 46
7 | O=C(Nc1nc2ccccc2[nH]1)[C@H]1C[C@@H]1c1cccc(F)c1 (racemic) | 300 | 14.6 | 21
8 | COc1cc(Br)ccc1NC(=O)[C@H]1C[C@@H]1c1cccc(Cl)c1 (racemic) | 1000 | 4.37 | 230
9 | O=C(Nc1nc2ccccc2[nH]1)[C@H]1C[C@@H]1c1cccc(Cl)c1 (racemic) | 400 | 5.96 | 67
10 | O=C(N[C@H]1C[C@@H]1c1cccc(F)c1)c1cccc(F)c1 (racemic) | 1000 | 33 | 30
11 | O=C(N[C@H]1C[C@@H]1c1cccc(F)c1)c1cccc([N+](=O)[O-])c1 (racemic) | 400 | 3.01 | 130
12 | O=C(N[C@H]1C[C@@H]1c1cccc(F)c1)c1ccc([N+](=O)[O-])cc1 (racemic) | 200 | 1.02 | 200
13 | O=C(N[C@H]1C[C@@H]1c1cccc(F)c1)c1ccccn1 (racemic) | 800 | 4.6 | 170
14 | O=C(Nc1ccc(F)cc1)[C@H]1C[C@@H]1c1cccc(Cl)c1 (relative stereo) | 1000 | 17.4 | 58
15 | O=C(Nc1ccccc1Cl)[C@H]1C[C@@H]1c1cccc(Cl)c1 (relative stereo) | 1000 | 14.1 | 71
16 | O=C(N[C@H]1C[C@@H]1c1cccc(F)c1)c1cccc(Cl)c1 (relative stereo) | 1000 | 5.03 | 200
